Assays:
11β-HSD1 [1] = target: T1, 11β-HSD1 (Homo sapiens, UniProt P28845); assay: Biological Test Example 4: microsomal 11β-HSD1 in the presence of 50% human plasma; details: for Shift: IC50 in Test Example 4 divided by IC50 in Test Example 1
11β-HSD1 [2] = target: T1, 11β-HSD1; assay: biochemical; details: for inhibition at 0.1 µM: read-out: Average % inhibition at 100 nM
[3] = Biological Test Example 1 IC50 (nM)
[4] = IC50 Range, Biological Test Example 1

T1 sequence (P28845 whole entry): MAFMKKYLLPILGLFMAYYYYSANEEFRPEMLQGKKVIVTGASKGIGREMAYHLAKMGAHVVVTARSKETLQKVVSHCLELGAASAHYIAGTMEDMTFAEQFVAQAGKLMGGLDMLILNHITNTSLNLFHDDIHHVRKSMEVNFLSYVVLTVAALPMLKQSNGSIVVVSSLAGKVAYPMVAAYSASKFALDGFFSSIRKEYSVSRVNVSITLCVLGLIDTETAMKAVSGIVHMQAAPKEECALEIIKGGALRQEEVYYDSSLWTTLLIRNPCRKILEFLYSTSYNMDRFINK

Compound | IC50 (11β-HSD1 [1]) [nM] | Shift (11β-HSD1 [1]) | IC50 (11β-HSD1 [2]; [3]) [nM] | IC50 (11β-HSD1 [2]; [4]) [nM] | inhibition at 0.1 µM (11β-HSD1 [2]) [%]
C[C@@H](c1ccc(-c2cccc(N(C)C)n2)cc1)N1CC[C@](CC(C)(C)O)(c2ccccc2)OC1=O [EXAMPLE 30, (S)-3-((S)-1-(4-(6-(dimethylamino)pyridin-2-yl)phenyl)ethyl)-6-(2-hydroxy-2-methylpropyl)-6-phenyl-1,3-oxazinan-2-one] | 21.8 | 24.0 | 0.9 | < 100 | 98.1
C[C@@H](c1ccc(-c2cnc(C(C)(C)O)nc2)cc1)N1CC[C@](CC(C)(C)O)(c2ccccc2)OC1=O [EXAMPLE 31, (S)-6-(2-hydroxy-2-methylpropyl)-3-((S)-1-(4-(2-(2-hydroxypropan-2-yl)pyrimidin-5-yl)phenyl)ethyl)-6-phenyl-1,3-oxazinan-2-one] | 9.3 | 1.9 | 4.8 | < 100 | 90.7
C[C@@H](c1ccc(-c2cccnc2)cc1)N1CC[C@](CCC(N)=O)(c2ccc(F)cc2)OC1=O [EXAMPLE 41, 3-((R)-6-(4-fluorophenyl)-2-oxo-3-((S)-1-(4-(pyridin-3-yl)phenyl)ethyl)-1,3-oxazinan-6-yl)propanamide] | 11 | – | 1.9 | < 100 | 96.8
C=CC[C@]1(c2ccc(F)cc2)CCN([C@@H](C)c2ccc(-c3sc(C)nc3C)cc2)C(=O)O1 [EXAMPLE 42, (R)-6-allyl-3-((S)-1-(4-(2,4-dimethylthiazol-5-yl)phenyl)ethyl)-6-(4-fluorophenyl)-1,3-oxazinan-2-one] | 34.3 | 33.4 | 1 | < 100 | 90.9
C=CC[C@]1(c2ccc(F)cc2)CCN([C@@H](C)c2ccc(-n3ccc(C(F)(F)F)n3)cc2)C(=O)O1 [EXAMPLE 43, (R)-6-allyl-6-(4-fluorophenyl)-3-((S)-1-(4-(3-(trifluoromethyl)-1H-pyrazol-1-yl)phenyl)ethyl)-1,3-oxazinan-2-one] | 315 | 36.5 | 8.6 | < 100 | 86.2
C[C@@H](c1ccc(-c2cccnc2)cc1)N1CC[C@](CCC(N)=O)(c2ccccc2)OC1=O [EXAMPLE 47, 3-((R)-2-oxo-6-phenyl-3-((S)-1-(4-(pyridin-3-yl)phenyl)ethyl)-1,3-oxazinan-6-yl)propanamide] | 21.4 | – | 2.6 | < 100 | 91
C[C@@H](c1ccc(-c2ccncc2)cc1)N1CC[C@](CCC(N)=O)(c2ccccc2)OC1=O [EXAMPLE 48, 3-((R)-2-oxo-6-phenyl-3-((S)-1-(4-(pyridin-4-yl)phenyl)ethyl)-1,3-oxazinan-6-yl)propanamide] | 3.9 | – | 1 | < 100 | 94.3
C[C@@H](c1ccc(-c2ccccn2)cc1)N1CC[C@](CCO)(c2ccc(F)cc2)OC1=O [EXAMPLE 57, (S)-6-(4-fluorophenyl)-6-(2-hydroxyethyl)-3-((S)-1-(4-(pyridin-2-yl)phenyl)ethyl)-1,3-oxazinan-2-one] | 19.2 | 18.8 | 1 | < 100 | 99.4
C[C@@H](c1ccc(-c2ccccn2)cc1)N1CC[C@](CCC(N)=O)(c2ccc(F)cc2)OC1=O [EXAMPLE 60, 3-((R)-6-(4-fluorophenyl)-2-oxo-3-((S)-1-(4-(pyridin-2-yl)phenyl)ethyl)-1,3-oxazinan-6-yl)propanamide] | 20.8 | 13.1 | 1.6 | < 100 | 91.9
COc1ccc(-c2ccc([C@H](C)N3CC[C@](CCO)(c4ccc(F)cc4)OC3=O)cc2)cn1 [EXAMPLE 63, (S)-6-(4-fluorophenyl)-6-(2-hydroxyethyl)-3-((S)-1-(4-(6-methoxypyridin-3-yl)phenyl)ethyl)-1,3-oxazinan-2-one] | 15.2 | 18.4 | 0.8 | < 100 | 101
COc1ccc(-c2ccc([C@H](C)N3CC[C@](CCC(N)=O)(c4ccc(F)cc4)OC3=O)cc2)cn1 [EXAMPLE 66, 3-((R)-6-(4-fluorophenyl)-3-((S)-1-(4-(6-methoxypyridin-3-yl)phenyl)ethyl)-2-oxo-1,3-oxazinan-6-yl)propanamide] | 9.7 | – | 1.3 | < 100 | 95.6
C[C@@H](c1ccc(-c2ccncc2)cc1)N1CC[C@](CCC(N)=O)(c2ccc(F)cc2)OC1=O [EXAMPLE 74, 3-((R)-6-(4-fluorophenyl)-2-oxo-3-((S)-1-(4-(pyridin-4-yl)phenyl)ethyl)-1,3-oxazinan-6-yl)propanamide] | 4.7 | – | 1.4 | < 100 | 95.7
Cc1cc(-c2ccc([C@H](C)N3CC[C@](CCC(=O)O)(c4ccc(F)cc4)OC3=O)cc2)ccn1 [EXAMPLE 77, 3-((R)-6-(4-fluorophenyl)-3-((S)-1-(4-(2-methylpyridin-4-yl)phenyl)ethyl)-2-oxo-1,3-oxazinan-6-yl)propanoic acid] | 114 | 3.0 | 38.1 | < 100 | 79.9
C[C@@H](c1ccc(-c2nccs2)cc1)N1CC[C@](CCCO)(c2ccc(F)cc2)OC1=O [EXAMPLE 82, (R)-6-(4-fluorophenyl)-6-(3-hydroxypropyl)-3-((S)-1-(4-(thiazol-2-yl)phenyl)ethyl)-1,3-oxazinan-2-one] | 25.2 | – | 1.8 | < 100 | 98.1
Cc1nc(C)c(-c2ccc([C@H](C)N3CC[C@](CCC(N)=O)(c4ccc(F)cc4)OC3=O)cc2)s1 [EXAMPLE 84, 3-((R)-3-((S)-1-(4-(2,4-dimethylthiazol-5-yl)phenyl)ethyl)-6-(4-fluorophenyl)-2-oxo-1,3-oxazinan-6-yl)propanamide] | 12.4 | 3.5 | 3.5 | < 100 | 93.3
C[C@@H](c1ccc(-c2ccccn2)cc1)N1CC[C@](CCO)(c2ccccc2)OC1=O [EXAMPLE 85, (S)-6-(2-hydroxyethyl)-6-phenyl-3-((S)-1-(4-(pyridin-2-yl)phenyl)ethyl)-1,3-oxazinan-2-one] | 12.9 | – | 0.9 | < 100 | 94.3
C[C@@H](c1ccc(-c2ccccn2)cc1)N1CC[C@](CC(C)(C)O)(c2ccccc2)OC1=O [EXAMPLE 86, (S)-6-(2-hydroxy-2-methylpropyl)-6-phenyl-3-((S)-1-(4-(pyridin-2-yl)phenyl)ethyl)-1,3-oxazinan-2-one] | 6.4 | 11.1 | 0.6 | < 100 | 99.6
C[C@@H](c1ccc(-c2ccccn2)cc1)N1CC[C@](CCC(N)=O)(c2ccccc2)OC1=O [EXAMPLE 88, 3-((R)-2-oxo-6-phenyl-3-((S)-1-(4-(pyridin-2-yl)phenyl)ethyl)-1,3-oxazinan-6-yl)propanamide] | 9.9 | – | 1.7 | < 100 | 98.3
Cc1cccc(-c2ccc([C@H](C)N3CC[C@](CCCO)(c4ccccc4)OC3=O)cc2)n1 [EXAMPLE 90, (R)-6-(3-hydroxypropyl)-3-((S)-1-(4-(6-methylpyridin-2-yl)phenyl)ethyl)-6-phenyl-1,3-oxazinan-2-one] | 13.5 | 25.5 | 0.5 | < 100 | 96.7
COc1ccc(-c2ccc([C@H](C)N3CC[C@](CCO)(c4ccccc4)OC3=O)cc2)cn1 [EXAMPLE 92, (S)-6-(2-hydroxyethyl)-3-((S)-1-(4-(6-methoxypyridin-3-yl)phenyl)ethyl)-6-phenyl-1,3-oxazinan-2-one] | 12.7 | 23.7 | 0.5 | < 100 | 97.3
Cc1cc(-c2ccc([C@H](C)N3CC[C@](CCO)(c4ccccc4)OC3=O)cc2)ccn1 [EXAMPLE 96, (S)-6-(2-hydroxyethyl)-3-((S)-1-(4-(2-methylpyridin-4-yl)phenyl)ethyl)-6-phenyl-1,3-oxazinan-2-one] | 5.6 | – | 0.7 | < 100 | 99.8
Cc1cc(-c2ccc([C@H](C)N3CC[C@](CCCNS(C)(=O)=O)(c4ccccc4)OC3=O)cc2)ccn1 [EXAMPLE 99, N-(3-((R)-3-((S)-1-(4-(2-methylpyridin-4-yl)phenyl)ethyl)-2-oxo-6-phenyl-1,3-oxazinan-6-yl)propyl)methanesulfonamide] | 7.9 | 16.6 | 0.5 | < 100 | 98.5
CC(=O)N(C)CCC[C@]1(c2ccccc2)CCN([C@@H](C)c2ccc(-c3ccnc(C)c3)cc2)C(=O)O1 [EXAMPLE 102, N-methyl-N-(3-((R)-3-((S)-1-(4-(2-methylpyridin-4-yl)phenyl)ethyl)-2-oxo-6-phenyl-1,3-oxazinan-6-yl)propyl)acetamide] | 63 | 17.3 | 3.6 | < 100 | 94.3
Cc1cc(-c2ccc([C@H](C)N3CC[C@](CCNS(C)(=O)=O)(c4ccccc4)OC3=O)cc2)ccn1 [EXAMPLE 103, N-(2-((S)-3-((S)-1-(4-(2-methylpyridin-4-yl)phenyl)ethyl)-2-oxo-6-phenyl-1,3-oxazinan-6-yl)ethyl)methanesulfonamide] | 8.2 | 4.3 | 1.9 | < 100 | 98.5
C[C@@H](c1ccc(-c2cnccn2)cc1)N1CC[C@](CCCO)(c2ccc(F)cc2)OC1=O [EXAMPLE 108, (R)-6-(4-fluorophenyl)-6-(3-hydroxypropyl)-3-((S)-1-(4-(pyrazin-2-yl)phenyl)ethyl)-1,3-oxazinan-2-one] | 7.1 | 4.0 | 1.8 | < 100 | 98.1
